Assays:
Format in all cases: in vivo, rabbit
[1] = test system: alloxan-induced diabetic rabbits; assay: Repair of the wound of keratoepithelial detachment in alloxan-induced diabetic rabbits; settings: 0.1% eye drop, 30 μL/eye every 4 hours, area immediately after detachment = 100, mean±S.E.
Description: Alloxan monohydrate (Lot No. DLJ5619, M.W. 160.09: Wako Pure Chemical Industries, LTD.) of 80 mg/kg was dissolved in 2 mL of physiological saline, and the solution was administered once intravenously of male Japanese albino rabbits [Std: JW/CSK] (11-week-old) to induce diabetes.
Blood glucose was determined weekly after administration of alloxan monohydrate: the mean blood glucose was increased from 142.2±4.7 mg/dL (mean±S.E.; The same is applicable hereinafter.) before administration to 522.5±13.7 mg/dL at 1 week, and this elevated level persisted thereafter. Animals with this alloxan-induced diabetes were used in the experiment. […]
The cornea was stained with fluorescein, and photographs of the anterior ocular segment were taken with the Medical Nikkor Lens attached with a yellow filter (Kodak WRATTEN No.12) and the front part of the flash attached with a blue filter (Kodak WRATTEN No.47). On the projected photographs magnified to the same degree, the stained area was measured with the planimeter. […]
Twelve hours after the keratoepithelial detachment, the area of the wound was measured. Then its relative value was calculated by taking the area of the wound immediately after the keratoepithelial detachment as 100. […]

[2] = test system: normal (not diabetic) rabbits; assay: Repair of the wound of keratoepithelial detachment in normal rabbits; settings: 0.2% eye drops, 30 μL/eye every 4 hours, area immediately after detachment = 100
Text: In the Experimental Example 1, the influence in rabbits with alloxan-induced diabetes was investigated, while the influence in normal (not diabetic) rabbits was investigated in this Example.
Ten-week-old male New Zealand White rabbits (weighing 2.07±0.11 kg: mean weight at the start of the experiment) were acclimation period for 7 days, while the animals were examined for the general signs including diarrhea and body weight, etc., and the anterior ocular segment was also observed. Only animals without any abnormality were used in the experiment.
Keratoepithelial detachment wounds were prepared as described in the Experimental Example 1.
The test substance was instilled every 4 hours after the keratoepithelial detachment (the first instillation was made immediately after preparation of the wound of keratoepithelial detachment).
Twelve hours after the keratoepithelial detachment, the area of the wound was measured, and its relative value was calculated by taking the area of the wound immediately after the keratoepithelial detachment as 100, and the relative value was used to assess the extent of repair. The area of the wound of keratoepithelial detachment was measured as described in the Experimental Example 1. […]

[3] = test system: alloxan-induced diabetic rabbits; assay: Examination of corneal esthesia (Cochet-Bonnet esthesiometer) in alloxan-induced diabetic rabbits
Description: (§1) Alloxan monohydrate (Lot No. DLJ5619, M.W. 160.09 Wako Pure Chemical Industries, LTD.) of 80 mg/kg was dissolved in 2 mL of physiological saline, and the solution was administered once intravenously of male Japanese albino rabbits [Std: JW/CSK] (11-week-old) to induce diabetes.
(§2) Blood glucose was determined once a week on 4 times after administration of alloxan monohydrate: animals having always blood glucose of 300 mg/dL or more were used as diabetic animals in this Experiment.
(§3) [3-(4-Bromo-2-fluorobenzyl)-7-chloro-2,4-dioxo- 1,2,3,4-tetrahydroquinazolin- 1-yl]acetate, an active ingredient of this invention, having aldose reductase-inhibiting effect was used for preparation of a 0.3% eye drops, and the eye drops were used as the test substance. The vehicle control was the vehicle of the eye drops simply without the active ingredient.
At the time of intravenous administration of alloxan, the drug was instilled into both eyes at 30 μL/eye four times a day over 4 consecutive weeks. Sixteen eyes of 8 animals in each of the test substance group and the vehicle control group were subjected to the examination of corneal esthesia and the examination of tear secretion as follows.
One hour after the second instillation on the day of examination, each animal was fixed in a stainless steel fixator (SHIBATA GLASS WORKS). The central part, the most sensitive part, of the cornea was stimulated 10 times in rapid sequence with a pressure by applying at the right angle a 30 mm nylon thread (Toray Nylon Monofilament, Type 100, No.0.6, diameter φ: 0.027mm, cross section s: 0.0129) of the Cochet-Bonnet type esthesiometer (Handaya Co., Ltd.) so that the nylon thread might be bent only slightly (pressure: […], measured by Handaya), and the number of blink reflex was taken as the corneal esthesia value. The examination was performed before, 2 weeks after and 4 weeks after administration of alloxan.
In both examinations, the test substance group and the vehicle control group were compared with the Williams's test.

[4] = test system: alloxan-induced diabetic rabbits; assay: Examination of tear secretion (Schirmer's test) in alloxan-induced diabetic rabbits; settings: 1 minute
Description: as §1, §2, §3
At the time of intravenous administration of alloxan, the drug was instilled into both eyes at 30 μL/eye four times a day over 4 consecutive weeks. […]
One hour after the second instillation on the day of examination, each animal was fixed in a stainless steel fixator, and the edge of the Schirmer's test paper (SHOWA YAKUHIN KAKO, Co., Ltd., Lot No.70080) was inserted into the conjunctival sac to cover the ⅓ of the lower eyelid on the ear side. One minute after, the paper was removed, and the length of the moistened part was read from the scale on the paper. […]

[5] = test system: rabbits with dry eye syndrome induced by trigeminal denervation; assay: Basal tear secretion in rabbits with dry eye syndrome induced by trigeminal denervation
Text: (§4) Twenty male Japanese albino rabbits [Std:JW/CSK] were used.
(§5) Urethane (ALDRICH, Lot No.069110Q) was intraperitoneally administered at the dose of 1 g/kg to rabbits of which hair at the head after anesthesia had been shaved.
(§6) After disinfection of the shaved area, midline incision of the skin was made from the frontal bone to the ear root, and the periosteum and the muscular tissue around the temporal bone and mandibular articular process were detached. After the detachment, a hole of 2×1.5 cm in size was made in the bone from the parietal medial region to the temporal region by using a bone drill (URAWA KOGYO Co., Ltd., MINITOR.C-130) under the surgical microscope (KONAN CAMERA R& I Inc., PMO-50). Then the dura was detached from the cranial bone while cotton was kept inserted between the temporal bone and the dura. After the detachment was made up to the cranial base, detachment was further made toward the medial border of the petrous part of temporal bone in the cranial cavity, to find the trigeminal nerve in the petrous part. Then the dura of about 1 to 2 mm on the nasal side of the semilunar ganglion was incised. After the incision, the two branches of nerve fascicle, i.e. the first branch of the trigeminal nerve (ocular nerve) and the second branch (maxillary nerve), were pulled laterally and cut with corneoscleral scissors. After confirmation of miosis of the ipsilateral eye immediately after the cut, the cotton kept inserted was removed, and the skin at the head was closed with suture. After the operation, an antibiotic (MYCILLIN SOL®: Meiji) was administered intramuscularly at the dose of 0.1 mL/kg.
(§7) The trigeminal denervation was made only on the left eye side, while the trigeminal denervation on the right eye side or sham operation was not made
(§8) Two-week acclimation period was allowed to pass after the trigeminal denervation.
as §3, with “of 0.03% eye drop, 0.1% eye drop, and” for “of a”, “eye drop, which” for “eye drops, and the eye drops”, “test substances.” for “test substance.”, “the base” for “the vehicle”
(§9) From about 2 weeks after the trigeminal denervation, one of the above-mentioned drugs was instilled at the volume of 30 μL/eye four times a day for 2 consecutive weeks. Five eyes of each of the test substance groups and the control group were examined for the basal tear secretion and the keratoepithelial lesion as follows.
Before the start of instillation (Week 0), and 1 week and 2 weeks after instillation, the basal tear secretion was measured one hour after the second instillation on the day of examination.
Keratoconjunctiva was anesthetized by instillation of 4% lidocaine (Xylocaine® 4% for ophthalmology: Fujisawa Pharmaceutical Co., Ltd.), and the eye drop and the tear around the eyelid were wiped off about 5 minutes later.
When loss of keratoconjunctival esthesia was confirmed with the Cochet-Bonnet type esthesiometer, the edge of the Shirmer's test paper was kept inserted into the conjunctival sac for 5 minutes, and the length of the moistened part was read from the scale on the paper.
The basal tear secretion was expressed by the mean per minute calculated from the 4-minute-value obtained by subtraction of the first-1-minute-value from the 5-minute-value of the Shirmer's test, so that the volume of the tear considered to be retained in the conjunctival sac might be excluded.

[6] = test system: rabbits with dry eye syndrome induced by trigeminal denervation; assay: Keratoepithelial lesion score in rabbits with dry eye syndrome induced by trigeminal denervation
Text: as §4, §5, §6, §7, §8
as §3, with “of 0.03% eye drop, 0.1% eye drop, and” for “of a”, “eye drop, which” for “eye drops, and the eye drops”, “test substances.” for “test substance.”, “the base” for “the vehicle”
as §9
Before the start of instillation (Week 0), and 1 week and 2 weeks after instillation, the lesion was evaluated one hour after the first instillation on the day of examination.
Each animal was placed in a stainless steel fixator, and given instillation of 50 μL of the mixture of 1% rose bengal and 1% fluorescein, followed by vital staining of the keratoconjunctival epithelium for evaluation of the extent of lesion according to the scoring system shown in Table 5.

[7] = after 4 weeks, 0.3% eye drops, 30 μL/eye four times a day
[8] = before alloxan (baseline), 0.3% eye drops group

Q: With `O=C(O)Cn1c(=O)n(Cc2ccc(Br)cc2F)c(=O)c2ccc(Cl)cc21` [compound of the formula (II), [3-(4-bromo-2-fluorobenzyl)-7-chloro-2,4-dioxo-1,2,3,4-tetrahydroquinazolin-1-yl]acetate] as the molecule, how does the “Relative area of wound of keratoepithelial detachment 12 hours after keratoepithelial detachment” value [1] read?
A: 89.0 ± 2.7 %

Q: What about the “Relative area of wound of keratoepithelial detachment 12 hours after keratoepithelial detachment” value [2] of the same molecule?
A: 80.8 ± 2.0 %

Q: What about the “Corneal esthesia value (number of blink reflex on 10 stimulations)” value (shortened to “Corneal esthesia value”) ([3]; after 2 weeks, 0.3% eye drops, 30 μL/eye four times a day) of the same molecule?
A: 5.3 ± 0.7 number of times

Q: And the “Corneal esthesia value” value [3, 7]?
A: 5.1 ± 0.6 number of times

Q: What about the “Corneal esthesia value” value [3, 8] of the same molecule?
A: 5.6 ± 0.3 number of times

Q: And the “tear secretion (Schirmer's test)” value [4, 7]?
A: 7.1 ± 0.4 mm

Q: What about the “tear secretion (Schirmer's test)” value [4, 8] of the same molecule?
A: 8.3 ± 0.6 mm

Q: And the Basal tear secretion ([5]; 0.03% eye drop group, before instillation (baseline))?
A: 0.38 ± 0.09 mm/minute

Q: And the Basal tear secretion ([5]; 0.03% eye drop, 30 μL/eye four times a day, week 1)?
A: 0.92 ± 0.17 mm/minute

Q: And the Basal tear secretion ([5]; 0.03% eye drop, 30 μL/eye four times a day, week 2)?
A: 1.02 ± 0.09 mm/minute

Q: And the Basal tear secretion ([5]; 0.1% eye drop group, before instillation (baseline))?
A: 0.38 ± 0.13 mm/minute

Q: And the Basal tear secretion ([5]; 0.1% eye drop, 30 μL/eye four times a day, week 1)?
A: 1.24 ± 0.14 mm/minute

Q: And the Basal tear secretion ([5]; 0.1% eye drop, 30 μL/eye four times a day, week 2)?
A: 1.12 ± 0.11 mm/minute

Q: And the Basal tear secretion ([5]; 0.3% eye drop group, before instillation (baseline))?
A: 0.34 ± 0.10 mm/minute

Q: What about the Basal tear secretion ([5]; 0.3% eye drop, 30 μL/eye four times a day, week 1) of the same molecule?
A: 1.24 ± 0.16 mm/minute

Q: And the Basal tear secretion ([5]; 0.3% eye drop, 30 μL/eye four times a day, week 2)?
A: 1.20 ± 0.15 mm/minute

Q: What about the Keratoepithelial lesion ([6]; 0.03% eye drop group, before instillation (baseline), score 0-4 by stained area (Table 5)) of the same molecule?
A: 2.8 ± 0.4 score

Q: And the Keratoepithelial lesion ([6]; 0.03% eye drop, four times a day, week 1, score 0-4 (Table 5))?
A: 0.5 ± 0.4 score

Q: What about the Keratoepithelial lesion ([6]; 0.03% eye drop, four times a day, week 2, score 0-4 (Table 5)) of the same molecule?
A: 0.2 ± 0.1 score

Q: What about the Keratoepithelial lesion ([6]; 0.1% eye drop group, before instillation (baseline), score 0-4 (Table 5)) of the same molecule?
A: 3.0 ± 0.6 score

Q: And the Keratoepithelial lesion ([6]; 0.1% eye drop, four times a day, week 1, score 0-4 (Table 5))?
A: 0.4 ± 0.2 score

Q: What about the Keratoepithelial lesion ([6]; 0.1% eye drop, four times a day, week 2, score 0-4 (Table 5)) of the same molecule?
A: 0.4 ± 0.2 score

Q: What about the Keratoepithelial lesion ([6]; 0.3% eye drop group, before instillation (baseline), score 0-4 (Table 5)) of the same molecule?
A: 3.0 ± 0.5 score

Q: And the Keratoepithelial lesion ([6]; 0.3% eye drop, four times a day, week 1, score 0-4 (Table 5))?
A: 0.5 ± 0.4 score

Q: What about the Keratoepithelial lesion ([6]; 0.3% eye drop, four times a day, week 2, score 0-4 (Table 5)) of the same molecule?
A: 0.1 ± 0.1 score
